According to patent publication US6833456B2, “Indolyl-urea derivatives of thienopyridines useful as antiangiogenic agents, and methods for their use” (Agouron Pharmaceuticals, Inc., priority 2002, dated 2004):
Values joined by “and” are separate entries in the source; they are usually repeats but may differ in a detail not shown here. Equal entries are not always repeated.

Tests used:
Mouse PK assay = assay type: in vivo, B6 female mice; conditions: po; for AUC / Cmax: female, B6, mouse, plasma, 50 mg/kg; for Cmax: p.o., read-out: Mouse Cmax, po ng-h/mL
Method in brief: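 Plasma levels were measured by HPLC with UV detection after acetonitrile precipitation, using extracted standards, in blood taken up to 4 h (0.5, 1, 2, 4 h) post-dose. Dosing: 50 mg/kg orally or intraperitoneally to two groups of four female B6 mice, vehicle PEG 400:acidified H2O 30:70 suspension.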

KDR (VEGFR2) = target: T1, KDR (VEGFR2) (Homo sapiens, UniProt P35968); experiment: KDR (VEGFR2) phosphorylation in PAE-KDR cells assay; assay type: cell-based; conditions: PAE cells overexpressing human KDR, VEGF stimulated; read-out: PAE KDR autophos IC50
T1 construct: expressed in transfected cells; host or cells: porcine aorta endothelial (PAE) cells
Method in brief: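 PAE cells overexpressing human KDR, serum-starved 16 h (0.1% FBS), treated with compound 1 h at 37° C (0.5% DMSO), then stimulated 8 min with 500 ng/ml VEGF plus 2 mM Na3VO4. Lysate KDR phosphotyrosine measured by capture ELISA (anti-pY HRP, 450 nm); IC50 by four-parameter fit.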

[1] = test system: human umbilical vein endothelial cells (HUVEC); experiment: HUVEC+VEGF proliferation assay; assay type: cell-based; conditions: Homo sapiens, HUVEC, 72 h, VEGF 6 ng/mL, MTT
Method in brief: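 HUVEC (passage 3-4), serum-starved 24 h in F12K + 1% FBS, were pre-treated with compound for 1 h (0.1% DMSO final). They were then stimulated with VEGF at 6 ng/mL final. Proliferation was measured after 72 h by MTT dye reduction (4 h), with absorbance read at 595 nm.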

HUVEC = experiment: bFGF HUVEC proliferation; assay type: cell-based, human; conditions: bFGF stimulated HUVEC

T1 sequence (P35968 20-1356): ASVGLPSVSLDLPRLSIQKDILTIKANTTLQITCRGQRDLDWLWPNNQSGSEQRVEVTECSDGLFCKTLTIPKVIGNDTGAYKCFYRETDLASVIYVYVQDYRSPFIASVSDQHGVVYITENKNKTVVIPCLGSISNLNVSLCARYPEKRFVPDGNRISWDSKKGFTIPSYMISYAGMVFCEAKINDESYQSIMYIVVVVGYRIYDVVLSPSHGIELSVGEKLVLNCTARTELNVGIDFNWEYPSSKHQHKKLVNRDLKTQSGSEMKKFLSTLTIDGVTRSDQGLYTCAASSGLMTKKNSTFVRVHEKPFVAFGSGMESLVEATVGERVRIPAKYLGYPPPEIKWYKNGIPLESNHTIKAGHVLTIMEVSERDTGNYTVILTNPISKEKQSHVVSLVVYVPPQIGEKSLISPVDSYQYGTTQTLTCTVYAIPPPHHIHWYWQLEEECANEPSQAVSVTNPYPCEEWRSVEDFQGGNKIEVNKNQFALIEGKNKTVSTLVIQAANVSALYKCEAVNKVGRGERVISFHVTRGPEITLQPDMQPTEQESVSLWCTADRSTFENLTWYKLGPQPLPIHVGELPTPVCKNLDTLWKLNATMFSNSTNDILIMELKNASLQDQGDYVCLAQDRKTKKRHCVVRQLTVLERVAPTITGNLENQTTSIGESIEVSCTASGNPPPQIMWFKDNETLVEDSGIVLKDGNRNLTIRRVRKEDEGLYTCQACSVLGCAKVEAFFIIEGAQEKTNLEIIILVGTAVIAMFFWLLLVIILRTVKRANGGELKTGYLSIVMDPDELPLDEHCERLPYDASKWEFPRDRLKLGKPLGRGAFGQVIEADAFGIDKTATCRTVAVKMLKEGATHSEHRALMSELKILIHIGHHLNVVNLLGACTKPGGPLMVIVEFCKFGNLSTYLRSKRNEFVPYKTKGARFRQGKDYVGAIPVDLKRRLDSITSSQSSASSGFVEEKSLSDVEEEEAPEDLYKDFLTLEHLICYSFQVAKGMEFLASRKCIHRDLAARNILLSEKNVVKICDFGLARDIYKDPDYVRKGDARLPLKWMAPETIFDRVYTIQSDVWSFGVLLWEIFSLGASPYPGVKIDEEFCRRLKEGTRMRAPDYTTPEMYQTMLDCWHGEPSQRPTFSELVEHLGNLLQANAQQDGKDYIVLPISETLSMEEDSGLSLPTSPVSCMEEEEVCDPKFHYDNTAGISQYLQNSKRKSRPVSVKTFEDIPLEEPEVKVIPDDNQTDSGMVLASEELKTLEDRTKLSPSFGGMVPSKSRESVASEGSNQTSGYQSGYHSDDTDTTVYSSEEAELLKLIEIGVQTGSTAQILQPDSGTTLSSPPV

AUC (Mouse PK assay) | Cmax (Mouse PK assay) | Mouse Cmin, po (Mouse PK assay) | IC50 (KDR (VEGFR2)) | SMILES | IC50 [1] | IC50 (HUVEC; Homo sapiens, HUVEC) | IC50 (HUVEC)
3620 ng·h/mL | 2280 ng/mL | 20 ng/mL | 580 pM and 980 pM | CNC(=O)n1c(C)cc2cc(Oc3ccnc4cc(C(=O)N5CC[C@H](OC)C5)sc34)ccc21 [Example 4g, 5-[2-(3S-Methoxy-pyrrolidine-1-carbonyl)-thieno[3,2-b]pyridin-7-yloxy]-2-methyl-indole-1-carboxylic acid methylamide] | 139 pM |  | 
321000 ng·h/mL | 11300 ng/mL | 9020 ng/mL | 90 pM | C#CCNC(=O)n1c(C)cc2cc(Oc3ccnc4cc(C(=O)N5CC[C@@H](OC)C5)sc34)ccc21 [Example 4l, 5-[2-(3R-Methoxy-pyrrolidine-1-carbonyl)-thieno[3,2-b]pyridin-7-yloxy]-2-methyl-indole-1-carboxylic acid prop-2-ynylamide] | 176 pM |  | 
1850 ng·h/mL | 1110 ng/mL | 45 ng/mL | 350 pM and 160 pM and 167 pM | CNC(=O)n1c(C)cc2cc(Oc3ccnc4cc(C(=O)N5CC[C@@H](O)C5)sc34)ccc21 [Example 4n, 5-[2-(3R-Hydroxy-pyrrolidine-1-carbonyl)-thieno[3,2-b]pyridin-7-yloxy]-2-methyl-indole-1-carboxylic acid methylamide] | 42 pM |  | 
1170 ng·h/mL | 1010 ng/mL | 19 ng/mL | 360 pM and 280 pM and 320 pM | CNC(=O)n1c(C)cc2cc(Nc3ccnc4cc(-c5nccn5C)sc34)ccc21 [Example 2a, 5-(2-[1-methyl-1H-imidazol-2-yl]thieno[3,2-b]pyridin-7-ylamino)-2-methylindole-1-carboxylic acid methylamide] |  |  | 
4630 ng·h/mL | 2710 ng/mL | 68 ng/mL | 220 pM | Cc1cc2cc(Oc3ccnc4cc(C(=O)N5CC[C@@H](O)C5)sc34)ccc2n1C(=O)NC1CC1 [Example 4p, 5-[2-(3R-Hydroxy-pyrrolidine-1-carbonyl)-thieno[3,2-b]pyridin-7-yloxy]-2-methyl-indole-1-carboxylic acid cyclopropylamide] | 128 pM |  | 
1960 ng·h/mL | 1100 ng/mL | 19 ng/mL | 256 pM and 520 pM and 237 pM | C#CCNC(=O)n1c(C)cc2c(F)c(Oc3ccnc4cc(C(=O)N5CCC[C@H]5CO)sc34)ccc21 [Example 5e, 4-Fluoro-5-[2-(2S-hydroxymethyl-pyrrolidine-1-carbonyl)-thieno[3,2-b]pyridin-7-yloxy]-2-methyl-indole-1-carboxylic acid prop-2-ynylamide] |  |  | 
703 ng·h/mL | 575 ng/mL | 3 ng/mL |  | CNC(=O)n1c(C)cc2cc(Oc3ccnc4cc(C(=O)N5CCC[C@H]5COC)sc34)ccc21 [Example 4a, 5-(2-[(S)-2-(methoxymethyl)pyrrolidine-1-carbonyl]thieno[3,2-b]pyridin-7-yloxy)-2-methylindole-1-carboxylic acid methylamide] | 200 pM | 33000 pM | 34000 pM
2800 ng·h/mL | 1900 ng/mL | 10 ng/mL | 1420 pM and 1430 pM and 1270 pM | CNC(=O)n1c(C)cc2cc(Nc3ccnc4cc(C(=O)N5CCC[C@H]5CO)sc34)ccc21 [Example 2b, 5-(2-[(S)-2-(hydroxymethyl)pyrrolidine-1-carbonyl]thieno[3,2-b]pyridin-7-ylamino)-2-methylindole-1-carboxylic acid methylamide] |  |  | 
15600 ng·h/mL | 8840 ng/mL | 112 ng/mL | 149 pM | C#CCNC(=O)n1c(C)cc2cc(Oc3ccnc4cc(C(=O)N5CC[C@H](OC)C5)sc34)ccc21 [Example 4f, 5-[2-(3S-Methoxy-pyrrolidine-1-carbonyl)-thieno[3,2-b]pyridin-7-yloxy]-2-methyl-indole-1-carboxylic acid prop-2-ynylamide] | 57 pM |  | 
8310 ng·h/mL | 2760 ng/mL | 313 ng/mL | 280 pM and 240 pM and 360 pM | C#CCNC(=O)n1c(C)cc2cc(Oc3ccnc4cc(C(=O)N5CCC[C@H]5COC)sc34)ccc21 [Example 4c, 5-(2-[(S)-2-(methoxymethyl)pyrrolidine-1-carbonyl]thieno[3,2-b]pyridin-7-yloxy)-2-methylindole-1-carboxylic acid prop-2-ynylamide] |  |  | 
1100 ng·h/mL | 371 ng/mL | 43 ng/mL | 1000 pM | Cc1cc2cc(Oc3ccnc4cc(C(=O)N5CC[C@H](O)C5)sc34)ccc2n1C(=O)NCCO [Example 9k, 5-[2-(3S-Hydroxy-pyrrolidine-1-carbonyl)-thieno[3,2-b]pyridin-7-yloxy]-2-methyl-indole-1-carboxylic acid (2-hydroxy-ethyl)-amide] | 490 pM |  | 
10300 ng·h/mL | 3950 ng/mL | 408 ng/mL | 720 pM and 330 pM and 350 pM | CNC(=O)n1c(C)cc2cc(Nc3ccnc4cc(-c5nc(C(C)(C)O)cs5)sc34)ccc21 [Example 3a, 5-{2-[4-(1-Hydroxy-1-methyl-ethyl)-thiazol-2-yl]-thieno[3,2-b]pyridin-7-ylamino}-2-methyl-indole-1-carboxylic acid methylamide] | 245 pM |  | 
5860 ng·h/mL | 4650 ng/mL | 4 ng/mL | 670 pM and 350 pM and 410 pM | CNC(=O)n1c(C)cc2cc(Nc3ccnc4cc(C(=O)N5CCC[C@H]5COC)sc34)ccc21 [Example 1t, 5-(2-[(S)-2-(methoxymethyl)pyrrolidine-1-carbonyl]thieno[3,2-b]pyridin-7-ylamino)-2-methylindole-1-carboxylic acid methylamide] |  |  | 
1630 ng·h/mL | 302 ng/mL | 125 ng/mL | 123 pM and 310 pM | C#CCNC(=O)n1c(C)c(Cl)c2c(F)c(Oc3ccnc4cc(C(=O)N5CC[C@H](O)C5)sc34)ccc21 [Example 6d, 3-Chloro-4-fluoro-5-[2-(3S-hydroxy-pyrrolidine-1-carbonyl)-thieno[3,2-b]pyridin-7-yloxy]-2-methyl-indole-1-carboxylic acid prop-2-ynylamide] |  |  | 
2600 ng·h/mL | 657 ng/mL | 161 ng/mL | 116 pM and 340 pM and 210 pM | CO[C@H]1CCN(C(=O)c2cc3nccc(Oc4ccc5c(c4)cc(C)n5C(=O)NC4CC4)c3s2)C1 [Example 4h, 5-[2-(3S-Methoxy-pyrrolidine-1-carbonyl)-thieno[3,2-b]pyridin-7-yloxy]-2-methyl-indole-1-carboxylic acid cyclopropylamide] | 650 pM |  | 
4060 ng·h/mL | 1960 ng/mL | 54 ng/mL | 370 pM and 260 pM and 550 pM | COC[C@@H]1CCCN1C(=O)c1cc2nccc(Oc3ccc4c(c3)cc(C)n4C(=O)NCC#CCO)c2s1 [Example 4d, 5-(2-[(S)-2-(methoxymethyl)pyrrolidine-1-carbonyl]thieno[3,2-b]pyridin-7-yloxy)-2-methylindole-1-carboxylic acid (4-hydroxybut-2-ynyl)amide] |  |  | 
18800 ng·h/mL | 11100 ng/mL | 252 ng/mL | 320 pM and 444 pM | Cc1cc2cc(Nc3ccnc4cc(-c5nc(C(C)(C)O)cs5)sc34)ccc2n1C(=O)NC1CC1 [Example 3b, 5-{2-[4-(1-Hydroxy-1-methyl-ethyl)-thiazol-2-yl]-thieno[3,2-b]pyridin-7-ylamino}-2-methyl-indole-1-carboxylic acid cyclopropylamide] |  |  | 
